Test results taken from patent US7445931B2, “Compositions and methods for enrichment of neural stem cells using ceramide analogs” (Bresagen, Inc., priority 2002, dated 2008).

Legend:
[1] = test system: EB8-derived cells; experiment: Injection of ceramide analog treated EB8-derived cells into mouse brain, teratoma formation; assay type: in vivo, C57BL6 mice
Experimental: In vitro differentiating ES cells at stage EB8 were incubated for […] with 75 μM S18, or 35 μM N-acyl sphingosine or other ceramide analogs. Protein was isolated from cells incubated with S18 for 24 hours and from untreated cells, separated by SDS-PAGE, and the expression of Oct-4 was analyzed by immunoblotting.
Prior to injection into the mouse brain, ES cells were labeled with Vybrant-DiI (rhodamine fluorescence) for permanent vital staining and were mixed with India ink in order to track the injection channel and cell migration/tissue integration. 1×10^4 of the untreated ES-J1 cells were injected, while 2×10^4 of the S18-treated cells were injected in order to control for the percentage of cells lost to apoptosis. The ES cells were injected into the right brain hemisphere (bregma—1.5 mm, 1 mm lateral of central suture, 2.0 mm deep) of 8-10 day old C57BL6 mice using a Hamilton syringe. After 7-21 days, the mice were sacrificed, the brain isolated and fixed with 10% PBS-buffered formalin. The brains were Vibratome sectioned at 100 μm. The distribution of the injected cells was determined by fluorescence microscopy.

[2] = test system: differentiating ES cells (NPs), PAR-4; experiment: S18-induced apoptosis (TUNEL) in NPs after PAR-4 antisense knockdown or PAR-4-RFP overexpression; assay type: cell-based, mouse
Experimental: For construction of PAR-4-REP cDNA, RT-PCR was performed with the oligonucleotide primer pair sense 5′atggcgaccggcggctatcg3′ (SEQ ID NO:14) and antisense 5′ctaccttgtcagctgcccaacaac3′(SEQ ID NO:15), using the first strand cDNA generated from embryoid bodies (EB8 stage) as template for the amplification reaction. The primers were endowed with the restriction enzyme cleaving sites Eco47III (sense) and SaII (antisense) for ligation of the PAR-4 specific amplification product into the multiple cloning site of HcRFP, a vector that encodes a far-red shifted variant of red fluorescent protein (Clontech). Differentiating ES cells at the NP1 stage were transfected with the PAR-4-RFP construct using the lipofectamine 2000 procedure according to the manufacturer's instructions (Invitrogen). The transfected cells were incubated in DMEM F12 (50/50), supplemented with 1×N2 and 20 ng/ml FGF-2, and the TUNEL assay or immunostainings were performed after 48 hours of incubation and NP formation. For depletion of ceramide, differentiating ES cell were incubated with 25 μM fumonisin B1 or 50 nM myriocin 48 hours prior to transfection with the PAR-4-RFP vector, and the inhibitor maintained in the medium throughout the post-transfection period. For induction of apoptosis, the novel ceramide analog S18 (40-100 μM), N-acetyl sphingosine (C2-ceramide, 10-30 μM), or natural ceramide isolated from EBs (0.5-1.5 μM) was added 48 hours after transfection with the PAR-4-RFP cDNA, and the degree of apoptosis quantified after 15-20 hours using TUNEL assays with paraformaldehyde-fixed cells as described above.
Endogenous expression of PAR-4 was suppressed by transfection of differentiating ES cells at the NP1 stage with 2 nmoles (per well in 24 wells plate) of the morpholino-based antisense oligonucleotide 5′cgatagccgccggtcgccatgttcc3′(SEQ ID NO:16) (see Guo et al., 1998, Nature Med., 4:957-962; Guo et al., 2001 Brain Res, 903:13-25) following the instructions of the manufacturer (GeneTools) in 0.5 ml of serum-free DMEM/F-12, 1XN2 supplemented with 20 ng/ml FGF-2. For induction of apoptosis, the novel ceramide analog S18 (40-100), N-acetyl sphingosine (C2 ceramide, […], or natural ceramide isolated from EBs (0.5-1.5 μM) was added 48 hours after transfection with the anti-PAR-4 morpholino, and the degree of apoptosis quantified after 15-20 hours using TUNEL assays with paraformaldehyde-fixed cells as described above.

CCCCCCCC/C=C\CCCCCCCC(=O)NC(CO)CO [S18, N-(2-hydroxy-1-(hydroxymethyl)ethyl)-oleoylamide]
teratoma formation ([1]; EB8-derived cells treated with S18, injected into mouse brain, ten days after injection): did not show teratoma formation | migration and integration of injected cells ([1]; S18-treated EB8-derived cells, Vybrant diI stained, host killed after 21 days): migrated to the hippocampus, and integrated into the host's brain tissue | ceramide analog-induced apoptosis in untransfected or mock (RFP)-transfected cells ([2]; 40 μM S18): no or only a low degree | number of apoptotic cells ([2]; 80 μM S18, control morpholino-transfected and untransfected NPs): more than 80% | apoptosis in PAR-4-RFP transfected cells ([2]; myriocin-treated ES cells transfected at NP1 stage, 40 μM S18): apoptosis was observed
